Results from ChEMBL document CHEMBL5316329, “Structure-Based Optimization of 2,4,5-Trisubstituted Pyrimidines as Potent HIV-1 Non-Nucleoside Reverse Transcriptase Inhibitors: Exploiting the Tolerant Regions of the Non-Nucleoside Reverse Transcriptase Inhibitors' Binding Pocket” (J Med Chem, 2023).

Experiments:
[1] = test system: Human immunodeficiency virus 1; assay: Antiviral activity against wild-type HIV-1 IIIB infected in human MT4 cells assessed as virus-induced cytopathicity treated for 5 days by MTT assay; assay type: functional, organism-based; conditions: Human immunodeficiency virus 1, IIIB, MT4, 120 h
[2] = test system: Human immunodeficiency virus 1; assay: Antiviral activity against NNRTI-resistant HIV-1 RES056 infected in human MT4 cells assessed as virus-induced cytopathicity treated for 5 days by MTT assay; assay type: functional, organism-based; conditions: Human immunodeficiency virus 1, RES056, MT4, 120 h
[3] = Cytotoxicity against human MT4 cells assessed as reduction in cell viability treated for 5 days by MTT assay; assay type: toxicity, cell-based; conditions: time 5 day
[4] = Selectivity index, ratio of CC50 for human MT4 cells to EC50 for wild-type HIV-1 IIIB infected in human MT4 cells; assay type: toxicity, cell-based; conditions: read-out: Selectivity Index
[5] = Selectivity index, ratio of CC50 for human MT4 cells to EC50 for NNRTI-resistant HIV-1 RES056 infected in human MT4 cells; assay type: toxicity, cell-based; conditions: read-out: Selectivity Index
[6] = biological target: Human immunodeficiency virus type 1 reverse transcriptase (Human immunodeficiency virus 1, UniProt Q72547); assay: Inhibition of wild-type HIV-1 reverse transcriptase assessed as inhibition of biotin-dUTP incorporation
[7] = test system: Human immunodeficiency virus 1; assay: Antiviral activity against HIV-1 harboring L100I mutant infected in human MT4 cells assessed as virus-induced cytopathicity treated for 5 days by MTT assay; assay type: functional, organism-based; conditions: Human immunodeficiency virus 1, MT4, 120 h; read-out: EC50
[8] = test system: Human immunodeficiency virus 1; assay: Antiviral activity against HIV-1 harboring K103N mutant infected in human MT4 cells assessed as virus-induced cytopathicity treated for 5 days by MTT assay; assay type: functional, organism-based; conditions: Human immunodeficiency virus 1, MT4, 120 h; read-out: EC50
[9] = test system: Human immunodeficiency virus 1; assay: Antiviral activity against HIV-1 harboring Y181C mutant infected in human MT4 cells assessed as virus-induced cytopathicity treated for 5 days by MTT assay; assay type: functional, organism-based; conditions: Human immunodeficiency virus 1, MT4, 120 h; read-out: EC50
[10] = test system: Human immunodeficiency virus 1; assay: Antiviral activity against HIV-1 harboring Y188L mutant infected in human MT4 cells assessed as virus-induced cytopathicity treated for 5 days by MTT assay; assay type: functional, organism-based; conditions: Human immunodeficiency virus 1, MT4, 120 h; read-out: EC50
[11] = test system: Human immunodeficiency virus 1; assay: Antiviral activity against HIV-1 E138K mutant infected in human MT4 cells assessed as virus-induced cytopathicity treated for 5 days by MTT assay; assay type: functional, organism-based; conditions: Human immunodeficiency virus 1, MT4, 120 h; read-out: EC50
[12] = test system: Human immunodeficiency virus 1; assay: Antiviral activity against HIV-1 F227L/V106A mutant infected in human MT4 cells assessed as virus-induced cytopathicity treated for 5 days by MTT assay; assay type: functional, organism-based; conditions: Human immunodeficiency virus 1, MT4, 120 h; read-out: EC50

Cc1cc(/C=C/C#N)cc(C)c1Oc1nc(NC2CCN(Cc3ccc(C(N)=O)cc3)CC2)ncc1-c1cccc(N)c1
EC50 [1]: 5.66 nM
EC50 [2]: 22.4 nM
CC50 at 120 h [3]: 8.37 µM
selectivity ratio [4]: 1480
selectivity ratio [5]: 373
IC50 [6]: 138 nM
EC50 [7]: 11 nM
EC50 [8]: 5.62 nM
EC50 [9]: 10.1 nM
EC50 [10]: 51 nM
EC50 [11]: 9.11 nM
EC50 [12]: 16.6 nM

Cc1cc(/C=C/C#N)cc(C)c1Cc1nc(NC2CCN(Cc3ccc(S(N)(=O)=O)cc3)CC2)ncc1-c1cncnc1
EC50 [1]: 5.4 nM
EC50 [2]: 37.8 nM
CC50 at 120 h [3]: 11.3 µM
selectivity ratio [4]: 2090
selectivity ratio [5]: 299
IC50 [6]: 117 nM
EC50 [7]: 4.52 nM
EC50 [8]: 5.02 nM
EC50 [9]: 8.21 nM
EC50 [10]: 41.9 nM
EC50 [11]: 13.4 nM
EC50 [12]: 15.3 nM

CC(=O)c1ccc(-c2cnc(NC3CCN(Cc4ccc(S(N)(=O)=O)cc4)CC3)nc2Oc2c(C)cc(/C=C/C#N)cc2C)cc1
EC50 [1]: 5.34 nM
EC50 [2]: 40.7 nM
CC50 at 120 h [3]: 8.09 µM
selectivity ratio [4]: 1520
selectivity ratio [5]: 198
IC50 [6]: 130 nM
EC50 [7]: 10.8 nM
EC50 [8]: 5.18 nM
EC50 [9]: 10.2 nM
EC50 [10]: 28.5 nM
EC50 [11]: 12 nM
EC50 [12]: 22.6 nM

Cc1cc(/C=C/C#N)cc(C)c1Oc1nc(NC2CCN(Cc3ccc(S(N)(=O)=O)cc3)CC2)ncc1-c1cccc(N)c1
EC50 [1]: 6.16 nM
EC50 [2]: 25.8 nM
CC50 at 120 h [3]: 6.94 µM
selectivity ratio [4]: 1130
selectivity ratio [5]: 269
IC50 [6]: 134 nM
EC50 [7]: 7.05 nM
EC50 [8]: 6.11 nM
EC50 [9]: 103 nM
EC50 [10]: 46.5 nM
EC50 [11]: 11.2 nM
EC50 [12]: 11.4 nM

Cc1cc(/C=C/C#N)cc(C)c1Oc1nc(NC2CCN(Cc3ccc(S(N)(=O)=O)cc3)CC2)ncc1-c1cccc(O)c1
EC50 [1]: 6.32 nM
EC50 [2]: 36.1 nM
CC50 at 120 h [3]: 7.85 µM
selectivity ratio [4]: 1240
selectivity ratio [5]: 215
IC50 [6]: 115 nM
EC50 [7]: 11.6 nM
EC50 [8]: 5.61 nM
EC50 [9]: 16 nM
EC50 [10]: 33 nM
EC50 [11]: 18.5 nM
EC50 [12]: 25 nM

Cc1cc(/C=C/C#N)cc(C)c1Oc1nc(NC2CCN(Cc3ccc(S(C)(=O)=O)cc3)CC2)ncc1-c1ccc(N)cc1
EC50 [1]: 4.46 nM
EC50 [2]: 34.1 nM
CC50 at 120 h [3]: 6.74 µM
selectivity ratio [4]: 1510
selectivity ratio [5]: 198
IC50 [6]: 159 nM
EC50 [7]: 4.68 nM
EC50 [8]: 4.92 nM
EC50 [9]: 8.09 nM
EC50 [10]: 33.2 nM
EC50 [11]: 7.47 nM
EC50 [12]: 7.8 nM

Cc1cc(/C=C/C#N)cc(C)c1Oc1nc(NC2CCN(Cc3ccc(C(N)=O)cc3)CC2)ncc1-c1ccc2c(c1)OCO2
EC50 [1]: 4.17 nM
EC50 [2]: 38.3 nM
CC50 at 120 h [3]: 5.32 µM
selectivity ratio [4]: 1280
selectivity ratio [5]: 139
IC50 [6]: 110 nM
EC50 [7]: 8.21 nM
EC50 [8]: 5.64 nM
EC50 [9]: 9.42 nM
EC50 [10]: 58.1 nM
EC50 [11]: 19.4 nM
EC50 [12]: 46.9 nM

Cc1cc(/C=C/C#N)cc(C)c1Oc1nc(NC2CCN(Cc3ccc(C(N)=O)cc3)CC2)ncc1-c1ccc(N)cc1
EC50 [1]: 3.41 nM
EC50 [2]: 18.9 nM
CC50 at 120 h [3]: 3.91 µM
selectivity ratio [4]: 1140
selectivity ratio [5]: 207
IC50 [6]: 108 nM
EC50 [7]: 3.31 nM
EC50 [8]: 3.53 nM
EC50 [9]: 4.81 nM
EC50 [10]: 22.8 nM
EC50 [11]: 5.05 nM
EC50 [12]: 9.18 nM
